Measurements taken from patent publication US10344330B2, “Glatiramer acetate response biomarker mRNA potency assay” (Mylan Inc., priority 2013, dated 2019).

Columns and labels:
[1] = system: IL-10 secreted by LN cells; experiment: IL-10 secretion by GA-stimulated LN cells, MSD 9-plex ELISA (Example II); assay type: cell-based, mouse; settings: for IL-10 secretion response ratio (treated cell medium to control DCCM1 medium): 21 hr
Experimental: Animals at 8 weeks of age were immunized by injection into four footpads using a 1 mL syringe with a 27-G, 1⁄2-inch needle. […] Ten days post-immunization, immunized animals were sacrificed via cervical dislocation. […] The LN cells were isolated by pressing the LN with the plunger end of a sterile syringe. […] Trypan blue exclusion method was used to determine the cell density of viable cells in the suspension. […] Cat. […] LN cells were plated into a 24-well tissue culture plate for drug stimulation. […] Cell debris was removed by centrifugation at ca. 200×g for 10 minutes at 4° C. Cytokines secreted by treated cells were determined on the day of collection by ELISA using mouse TH 1/TH 2 9-Plex Tissue Culture Kit (Meso Scale Discovery; Cat No. […]-2, Lot #: K0032839) which detects Th1 cytokines (IFN-γ, IL-2, IL-12, IL-1β, TNF-α, CXCL1) and Th2 cytokines (IL-4, IL-5 and IL-10). For IFN-γ, culture media also were assayed at 45 hours using mouse IFN-γ Tissue Culture Kit (Meso Scale Discovery; Cat No. […] For the positive control, 0.5 mL of LN cells (5×10^6 cells/well) were treated with 0.5 mL of ConA (5 μg/mL). For the negative control, 0.5 mL of LN cells (5×10^6 cells/well) were treated with 0.5 mL of MBP (20 μg/mL). The LN cells with mock stimulation (enriched DCCM1 medium) were used to monitor the background level of a cytokine. For the cytokine assays, calibration standards or samples were incubated in the MULTI-SPOT or the SINGLE-SPOT plate and each cytokine bound to its corresponding capture antibody. All test samples were run in duplicate. The amount of each cytokine on its distinct spot was quantified using a cytokine-specific detection antibody labeled with MSD SULFO-TAGTM reagent. Electrochemiluminescent signals from immobilized SULFO-TAGTM-labeled complexes on each spot from each well were captured by the MSD SECTOR Imager 6000, which produces a signal directly proportional to the amount of captured cytokine in a test sample. The levels of cytokines in test samples were derived by interpolation from calibration curves with calibration standards of known concentrations using reagents provided with the MSD kits. Kits were used according to the manufacturer's protocols. […] Data are expressed as a response ratio of cytokine concentration in treated cell medium to control DCCM1 medium.

IL-13 mRNA in LN cells = experiment: IL-13 mRNA by real-time PCR in LN cells of GA-immunized CD-1, BALB/cByJ, SJL/J mice (Example III); assay type: cell-based, mouse; settings: 6 hours
Experimental: On Day 0, mice were immunized with 250 μg GA (GMA, Mylan Pharmaceuticals, Inc.) and CFA. The GA solution (20 mg/mL) was diluted with Dulbecco's Phosphate-Buffered Saline to 5 mg/mL. The dosing formulation consisted of equal volumes of the diluted GA solution (5 mg/mL) and CFA solution, mixed until well-emulsified. Animals were weighed and allocated to groups. Animals were dosed by injection into four footpads. The injection volume per animal was 0.1 mL (about 10 μL into each front footpad, and 40 μL into each hind footpad).
Immunized animals were euthanized by cervical dislocation on Day 10 post-immunization. Lymph node cells were isolated from animals and treated with Myelin Basic Protein (MBP, a negative control), Concanavalin A (ConA, a positive control) or GA as shown in Table 16. Lymph nodes in the axillary and popliteal regions were removed aseptically in a purifier clean bench. […] The LN were then washed 3 times with −5 mL of RPMI medium, and isolated by pressing the LN with a syringe plunger. […] The cell suspension was centrifuged at about 200×g for 10 minutes at about 4° C. and re-suspended in ice cold enriched DCCM-1 medium. Cells were seeded in 96-well tissue culture plates.
LN cells isolated from GA-immunized animals were stimulated with GA (GMA, Mylan Pharmaceuticals, Inc.) at concentrations as indicated in Tables 16 and 17. A positive control was prepared by treating LN cells with 2.5 μg/mL concavalin A (ConA, a non-specific T cell stimulant). Myelin basic protein (MBP, 10 μg/mL) and enriched DCCM-1 medium served as negative controls. The cells from all groups each were stimulated with the same GA lot. Each reaction was set up in triplicate.
After incubation at about 37° C. in a humidified CO2 incubator for 6 hours, the cells were lysed for total RNA isolation. Total RNA was isolated from treated LN cells using SV 96 Total RNA Isolation System according to the manufacturer's protocol (Promega, Cat. #Z3500). Cells were washed once with Phosphate Buffered Saline (PBS) and lysed in RNA lysis buffer. The lysate was transferred to wells of the SV 96 binding plate. Samples were washed with RNA wash solution and treated with DNase. Total RNA was eluted with nuclease-free water from the binding plate.
After the reverse transcriptase reaction was completed, cDNA samples were used directly for real-time PCR to measure the response biomarker mRNA levels produced by the stimulated cells. […] All probes for target genes contained FAM dye, and probes for the internal control contained VIC®/MGB dye. Samples will be prepared and run in 96-well plates using a Real-Time PCR system (7500, Life Technologies). This system allows direct detection of PCR-product formation by measuring the increase in fluorescent emission continuously during the PCR reaction. A relative quantitation method was used to analyze changes in mouse IL-2, IL-4, IL-5, IL-10, IL-13, IFN-γ and TNF-α expression in GA-treated samples relative to the untreated control (enriched DCCM-1 treated) samples. The Real-Time PCR program was:
The levels of mouse cytokine amplicons (IL-2, IL-4, IL-5, IL-10, IL-13, mIFN-γ and TNF-α) were normalized to internal probe levels (GAPDH) from the same samples. The following equations were used to calculate the relative increase in response to GA stimulation compared to the control sample: ΔCT=CT_target−CT_reference ΔΔCT=−ΔCT_Treated−CT_VC

[2] = BALB/cByJ, immunized GA Intraplantar
[3] = BALB/cByJ, immunized GA Lower Limb
[4] = BALB/cByJ, immunized Mannitol Intraplantar
[5] = C57BL10J, immunized GA Intraplantar
[6] = C57BL10J, immunized GA Lower Limb
[7] = C57BL10J, immunized Mannitol Intraplantar
[8] = CD-1, immunized GA Intraplantar
[9] = CD-1, immunized Mannitol Intraplantar
[10] = Group 1C: CD-1, GA-immunized, stimulation 10 μg/mL
[11] = Group 2C: BALB/cByJ, GA-immunized, stimulation 10 μg/mL
[12] = Group 3C: SJL/J, GA-immunized, stimulation 10 μg/mL

Row | Molecule | IL-10 secretion response ratio (treated cell medium to control DCCM1 medium) [1, 2] | IL-10 secretion response ratio (treated cell medium to control DCCM1 medium) [1, 3] | IL-10 secretion response ratio (treated cell medium to control DCCM1 medium) [1, 4] | IL-10 secretion response ratio (treated cell medium to control DCCM1 medium) [1, 5] | IL-10 secretion response ratio (treated cell medium to control DCCM1 medium) [1, 6] | IL-10 secretion response ratio (treated cell medium to control DCCM1 medium) [1, 7] | IL-10 secretion response ratio (treated cell medium to control DCCM1 medium) [1, 8] | IL-10 secretion response ratio (treated cell medium to control DCCM1 medium) ([1]; CD-1, immunized GA Lower Limb) | IL-10 secretion response ratio (treated cell medium to control DCCM1 medium) [1, 9] | IL-13 mRNA Expression (IL-13 mRNA in LN cells; [10]) [fold change vs control] | IL-13 mRNA Expression (IL-13 mRNA in LN cells; [11]) [fold change vs control] | IL-13 mRNA Expression (IL-13 mRNA in LN cells; [12]) [fold change vs control] | further results
1 | Concanavalin A [ConA, reference compound] | 23.65 | 18.32 | 21.86 | 1.62 | 1.50 | 1.04 | 13.70 | 8.64 | 10.96 | – | – | – | IL-13 mRNA Expression (IL-13 mRNA in LN cells; Group 1C: CD-1, GA-immunized, stimulation 2.5 μg/mL): 31.3 fold change vs control; IL-13 mRNA Expression (IL-13 mRNA in LN cells; Group 2C: BALB/cByJ, GA-immunized, stimulation 2.5 μg/mL): 32.0 fold change vs control; IL-13 mRNA Expression (IL-13 mRNA in LN cells; Group 3C: SJL/J, GA-immunized, stimulation 2.5 μg/mL): 24.4 fold change vs control
2 | L-glutamic acid polymer with L-alanine, L-lysine and L-tyrosine, acetate (salt) [GA] | – | – | – | – | – | – | – | – | – | 12.3 | 12.6 | 20.0 | IL-10 secretion, dose response to GA (in words) ([1]; BALB/cByJ cells and CD1 cells): dose-dependent manner; IL-13 mRNA Expression (IL-13 mRNA in LN cells; Group 1C: CD-1, GA-immunized, stimulation 0.3 μg/mL): 1.7 fold change vs control; IL-13 mRNA Expression (IL-13 mRNA in LN cells; Group 1C: CD-1, GA-immunized, stimulation 1 μg/mL): 3.3 fold change vs control; IL-13 mRNA Expression (IL-13 mRNA in LN cells; Group 1C: CD-1, GA-immunized, stimulation 3 μg/mL): 9.4 fold change vs control; IL-13 mRNA Expression (IL-13 mRNA in LN cells; Group 2C: BALB/cByJ, GA-immunized, stimulation 0.3 μg/mL): 3.2 fold change vs control; IL-13 mRNA Expression (IL-13 mRNA in LN cells; Group 2C: BALB/cByJ, GA-immunized, stimulation 1 μg/mL): 9.1 fold change vs control; IL-13 mRNA Expression (IL-13 mRNA in LN cells; Group 2C: BALB/cByJ, GA-immunized, stimulation 3 μg/mL): 12.4 fold change vs control; IL-13 mRNA Expression (IL-13 mRNA in LN cells; Group 3C: SJL/J, GA-immunized, stimulation 0.3 μg/mL): 1.7 fold change vs control; IL-13 mRNA Expression (IL-13 mRNA in LN cells; Group 3C: SJL/J, GA-immunized, stimulation 1 μg/mL): 7.3 fold change vs control; IL-13 mRNA Expression (IL-13 mRNA in LN cells; Group 3C: SJL/J, GA-immunized, stimulation 3 μg/mL): 12.9 fold change vs control
3 | MBP: myelin basic protein, a negative control (protein, UniProt P02686 1-304, looked up) Myelin basic protein: MGNHAGKRELNAEKASTNSETNRGESEKKRNLGELSRTTSEDNEVFGEADANQNNGTSSQDTAVTDSKRTADPKNAWQDAHPADPGSRPHLIRLFSRDAPGREDNTFKDRPSESDELQTIQEDSAATSESLDVMASQKRPSQRHGSKYLATASTMDHARHGFLPRHRDTGILDSIGRFFGGDRGAPKRGSGKDSHHPARTAHYGSLPQKSHGRTQDENPVVHFFKNIVTPRTPPPSQGKGRGLSLSRFSWGAEGQRPGFGYGGRASDYKSAHKGFKGVDAQGTLSKIFKLGGRDSRSGSPMARR | 1.10 | 1.12 | 1.07 | 1.04 | 1.00 | 1.08 | 1.39 | 1.41 | 1.38 | 1.5 | 0.8 | 0.6 | –
